# Tests used:
# Assay type in all cases: in vivo
# Sinapsis alba [1] = experiment: Herbicidal activity, postemergence test (Example 66); design: key: A rating of 0 indicates growth as untreated control; a rating of 9 indicates death; conditions: post; 1000 g/ha; assessed visually twenty days after spraying
# Procedure: (§1) To evaluate their herbicidal activity, compounds according to the invention are tested using a representative range of plants: ZEAMX Zea mays ORYSA Oryza sativa GLXMA Glycine max BEAVA Beta vulgaris LIUUT Linum usitatissimum AVEFA Avena fatua ECHCG Echinochloa crus-galli SINAL Sinapsis alba
# (§2) The tests fall into two categories, preemergence and postemergence. The preemergence tests involve spraying a liquid formulation of the compound onto the soil in which the seeds of the plant species mentioned above have recently been sown. The postemergence tests involve spraying a liquid formulation of the compound onto seedling plants of the above species.
# (§3) The soil used in the tests is a prepared horticultural loam.
# (§4) The formulations used in the tests are prepared from solutions of the test compounds in acetone containing 0.4% by weight of an alkylphenol/ethylene oxide condensate available under the trademark TRITON X-155. These acetone solutions are diluted with water and the resulting formulations applied at dosage levels corresponding to 1000 g of active material per hectare in a volume equivalent to 900 litres per hectare.
# (§5) In the preemergence tests, untreated sown soil, and in the postemergence tests, untreated soil bearing seedling plants, are used as controls.
# (§6) The herbicidal effects of the test compounds are assessed visually twenty days after spraying the foliage and the soil and are recorded on a 0-9 scale. A rating of 0 indicates growth as untreated control, a rating of 9 indicates death. An increase of 1 unit on the linear scale approximates to an 11% increase in the level of effect.
# Avena fatua [2] = experiment: as above; design: key: A rating of 0 indicates growth as untreated control; a rating of 9 indicates death; conditions: post; 1000 g/ha; assessed visually twenty days after spraying
# Procedure: as §1, §2, §3, §4, §5, §6
# Oryza sativa [3] = experiment: as above; design: key: A rating of 0 indicates growth as untreated control; a rating of 9 indicates death; conditions: post; 1000 g/ha; assessed visually twenty days after spraying
# Procedure: as §1, §2, §3, §4, §5, §6
# Echinochloa crus-galli [4] = experiment: as above; design: key: A rating of 0 indicates growth as untreated control; a rating of 9 indicates death; conditions: post; 1000 g/ha; assessed visually twenty days after spraying
# Procedure: as §1, §2, §3, §4, §5, §6
# Beta vulgaris [5] = experiment: as above; design: key: A rating of 0 indicates growth as untreated control; a rating of 9 indicates death; conditions: post; 1000 g/ha; assessed visually twenty days after spraying
# Procedure: as §1, §2, §3, §4, §5, §6
# Linum usitatissimum [6] = experiment: as above; design: key: A rating of 0 indicates growth as untreated control; a rating of 9 indicates death; conditions: post; 1000 g/ha; assessed visually twenty days after spraying
# Procedure: as §1, §2, §3, §4, §5, §6
# Zea mays [7] = experiment: as above; design: key: A rating of 0 indicates growth as untreated control; a rating of 9 indicates death; conditions: post; 1000 g/ha; assessed visually twenty days after spraying
# Procedure: as §1, §2, §3, §4, §5, §6
# Glycine max [8] = experiment: as above; conditions: post; 1000 g/ha; assessed visually twenty days after spraying
# Procedure: as §1, §2, §3, §4, §5, §6
# Sinapsis alba [9] = experiment: Herbicidal activity, preemergence test (Example 66); design: key: A rating of 0 indicates growth as untreated control; a rating of 9 indicates death; conditions: pre; 1000 g/ha; assessed visually twenty days after spraying
# Procedure: as §1, §2, §3, §4, §5, §6
# Avena fatua [10] = experiment: as above; design: key: A rating of 0 indicates growth as untreated control; a rating of 9 indicates death; conditions: pre; 1000 g/ha; assessed visually twenty days after spraying
# Procedure: as §1, §2, §3, §4, §5, §6
# Oryza sativa [11] = experiment: as above; design: key: A rating of 0 indicates growth as untreated control; a rating of 9 indicates death; conditions: pre; 1000 g/ha; assessed visually twenty days after spraying
# Procedure: as §1, §2, §3, §4, §5, §6
# Echinochloa crus-galli [12] = experiment: as above; design: key: A rating of 0 indicates growth as untreated control; a rating of 9 indicates death; conditions: pre; 1000 g/ha; assessed visually twenty days after spraying
# Procedure: as §1, §2, §3, §4, §5, §6
# Beta vulgaris [13] = experiment: as above; design: key: A rating of 0 indicates growth as untreated control; a rating of 9 indicates death; conditions: pre; 1000 g/ha; assessed visually twenty days after spraying
# Procedure: as §1, §2, §3, §4, §5, §6
# Glycine max [14] = experiment: as above; design: key: A rating of 0 indicates growth as untreated control; a rating of 9 indicates death; conditions: pre; 1000 g/ha; assessed visually twenty days after spraying
# Procedure: as §1, §2, §3, §4, §5, §6
# Linum usitatissimum [15] = experiment: as above; design: key: A rating of 0 indicates growth as untreated control; a rating of 9 indicates death; conditions: pre; 1000 g/ha; assessed visually twenty days after spraying
# Procedure: as §1, §2, §3, §4, §5, §6
# Zea mays [16] = experiment: as above; design: key: A rating of 0 indicates growth as untreated control; a rating of 9 indicates death; conditions: pre; 1000 g/ha; assessed visually twenty days after spraying
# Procedure: as §1, §2, §3, §4, §5, §6
SMILES,"herbicidal effects on a 0-9 scale, SINAL (Sinapsis alba [1])","herbicidal effects on a 0-9 scale, AVEFA (Avena fatua [2])","herbicidal effects on a 0-9 scale, ORYSA (Oryza sativa [3])","herbicidal effects on a 0-9 scale, ECHCG (Echinochloa crus-galli [4])","herbicidal effects on a 0-9 scale, BEAVA (Beta vulgaris [5])","herbicidal effects on a 0-9 scale, LIUUT (Linum usitatissimum [6])","herbicidal effects on a 0-9 scale, ZEAMX (Zea mays [7])","herbicidal effects on a 0-9 scale, GLXMA (Glycine max [8])","herbicidal effects on a 0-9 scale, SINAL (Sinapsis alba [9])","herbicidal effects on a 0-9 scale, AVEFA (Avena fatua [10])","herbicidal effects on a 0-9 scale, ORYSA (Oryza sativa [11])","herbicidal effects on a 0-9 scale, ECHCG (Echinochloa crus-galli [12])","herbicidal effects on a 0-9 scale, BEAVA (Beta vulgaris [13])","herbicidal effects on a 0-9 scale, GLXMA (Glycine max [14])","herbicidal effects on a 0-9 scale, LIUUT (Linum usitatissimum [15])","herbicidal effects on a 0-9 scale, ZEAMX (Zea mays [16])"
"C[C@H](NC(=O)c1nc(C(C)(C)C)ns1)c1ccccc1 [Example 8, (S)-3-tert-Butyl-[1,2,4]thiadiazole-5-carboxylic acid, 1-(phenylethyl)amide]",9,6,0,8,9,9,0,6,8,0,0,0,8,0,0,0
"CC(C)Cc1nsc(C(=O)N[C@@H](C)c2ccccc2)n1 [Example 13, (S)-3-Isobutyl-[1,2,4]thiadiazole-5-carboxylic acid, 1-(phenylethyl)amide]",8,5,0,8,9,7,2,5,4,0,0,2,5,0,0,0
CC(C)c1nsc(C(=O)NCc2cccs2)n1 [Example 9],7,0,0,5,7,2,2,2,4,0,0,2,0,0,0,0
CC(NC(=O)c1nsc(-c2ccccc2)n1)c1cccs1 (racemic) [Example 22],7,4,2,5,9,6,2,6,3,0,0,2,2,0,0,1
"CC(C)Cc1nsc(C(=O)NC(C)c2cccs2)n1 (racemic) [Example 12, (R/S)-3-Isobutyl-[1,2,4]thiadiazole-5-carboxylic acid, [1-(2-thienyl)ethyl]amide]",9,2,0,9,8,8,0,5,5,0,0,5,5,0,2,0
"CC(NC(=O)c1nc(-c2ccc(F)cc2)ns1)c1cccs1 (racemic) [Example 15, (R/S)-3-(4-Fluorophenyl)-[1,2,4]thiadiazole-5-carboxylic acid, [1-(2-thienyl)ethyl]amide]",9,4,0,7,9,7,3,7,0,0,0,0,0,0,0,0
O=C(NCc1ccccc1)c1nc(-c2ccc(F)cc2)ns1 [Example 20],9,0,0,2,9,6,0,6,0,0,0,0,0,0,0,0
"CC(C)c1nsc(C(=O)N[C@@H](C)c2ccccc2)n1 [Example 10, (S)-3-Isopropyl-[1,2,4]thiadiazole-5-carboxylic acid, 1-(phenylethyl)amide]",8,5,0,8,8,8,2,5,7,0,0,5,7,0,4,0
O=C(NCc1cccs1)c1nc(-c2ccc(F)cc2)ns1 [Example 14],8,0,0,2,8,5,0,2,0,0,0,0,0,0,0,0
